How the values were obtained:
[1] = Microsomal stability assay, mouse liver microsomes; format: in vitro ADME; conditions: pre-incubation with Cobi vs without
[2] = Microsomal stability assay, human liver microsomes; format: in vitro ADME; conditions: pre-incubation with Cobi vs without
Cytotoxicity assay = format: cell-based; conditions: human, TZM-GFP cells

SMILES	increase of half-life with Cobicistat (MLM) [1] [fold]	increase of half-life with Cobicistat (HLM) [2] [fold]	CC50 at 72 h (Cytotoxicity assay) [µM]
CN(C(=O)[C@H](Cc1ccccc1)NC(=O)Cc1c[nH]c2ccccc12)c1ccc(Br)cc1 [Compd 32, (S)-2-(2-(1H-indol-3-yl)acetamido)-N-(4-bromophenyl)-N-methyl-3-phenylpropanamide]	74	62	–
CN(C(=O)[C@H](Cc1ccccc1)NC(=O)Cc1c[nH]c2ccccc12)c1ccc(Cl)nc1 [Compd 37, (S)-2-(2-(1H-indol-3-yl)acetamido)-N-(6-chloropyridin-3-yl)-N-methyl-3-phenylpropanamide]	–	–	57 ± 0.3

— PMC7492092 (European journal of medicinal chemistry, 2020)
